Publication PMC9881143 (2023)

How the values were obtained:
[1] = system: THF-II-lotiTL (RNA, riboswitch) GGCGUGGUCCGUUCAACUCGUUCCUCGAAAGAGGAACUACGGGAGACGCC; assay: X-ray crystallography; details: co-crystal, 0.1 M sodium citrate pH 6.5, 1.5-2.5 M ammonium sulfate, 16 °C; RNA:ligand 1:5
[2] = system: THF-II-lotiTL C22G mutant (THF-II-lotiTL-C22G) (RNA, riboswitch) GGCGUGGUCCGUUCAAGUCGUUCCUCGAAAGAGGAACUACGGGAGACGCC; assay: ITC; details: K+ 100 mM, Mg2+ (concentration not stated for this titration); 20 mM Tris-HCl pH 7.5, 1 mM TCEP, 25 °C; 0.75 mM ligand in syringe into 30 μM RNA
[3] = system: THF-II-lotiTL U44A mutant (RNA, riboswitch) GGCGUGGUCCGUUCAACUCGUUCCUCGAAAGAGGAACAACGGGAGACGCC; assay: ITC; details: K+ 100 mM, Mg2+ (concentration not stated for this titration); 20 mM Tris-HCl pH 7.5, 1 mM TCEP, 25 °C; 0.75 mM ligand in syringe into 30 μM RNA
[4] = system: THF-II-lotiTL U44C mutant (RNA, riboswitch) GGCGUGGUCCGUUCAACUCGUUCCUCGAAAGAGGAACCACGGGAGACGCC; assay: ITC; details: K+ 100 mM, Mg2+ (concentration not stated for this titration); 20 mM Tris-HCl pH 7.5, 1 mM TCEP, 25 °C; 0.75 mM ligand in syringe into 30 μM RNA
[5] = system: THF-II-lotiTL C22U mutant (RNA, riboswitch) GGCGUGGUCCGUUCAAUUCGUUCCUCGAAAGAGGAACUACGGGAGACGCC; assay: ITC; details: K+ 100 mM, Mg2+ (concentration not stated for this titration); 20 mM Tris-HCl pH 7.5, 1 mM TCEP, 25 °C; 0.75 mM ligand in syringe into 30 μM RNA

binding [1] | binding [2] | binding [3] | binding [4] | binding [5] | Structure (SMILES)
yes |  |  |  |  | C[C@H](O)[C@H](O)[C@H]1CNc2nc(N)[nH]c(=O)c2N1
yes |  |  |  |  | Nc1nc2[nH]ccc2c(=O)[nH]1
yes |  |  |  |  | Nc1nc2c(c(=O)[nH]1)N=C([C@H](O)[C@H](O)CO)CN2
 | no | no | no | no | Nc1nc2c(c(=O)[nH]1)N[C@@H](CNc1ccc(C(=O)N[C@@H](CCC(=O)O)C(=O)O)cc1)CN2
